Measured values taken from patent US8716478B2, “Boron-containing small molecules” (Anacor Pharmaceuticals, Inc., priority 2010, dated 2014).

Legend:
[1] = test system: TNF-α in peripheral blood mononuclear cells (PBMCs); assay: TNF-α inhibition in LPS-stimulated peripheral blood mononuclear cells; assay type: cell-based; details: PBMC; PBMCs, LPS 1 μg/mL for 24 h; read-out: Proinflammatory TNF-α IC50
Protocol: Peripheral blood mononuclear cells (PBMCs) pooled from 10-20 donors were obtained from a local blood bank, ficoll gradient purified, and stored frozen in liquid nitrogen. Cells were thawed and seeded into 96-well plates at 5×10^5 cells/well in RPMI 1640 with 10% heat-inactivated fetal calf serum (MediaTech, Inc, Hearndon, Va., USA), Test articles were evaluated at the indicated concentrations in 150 μL media containing <2% DMSO, final, with stimulant and PBMCs. Cells were stimulated with lipopolysaccharide (LPS, phenol-extract from E. coli, Sigma-Aldrich, St. Louis, Mo.) at 1 μg/mL. Stimulation was with LPS for 24 h to measure TNF-α. Cytokines in supernatants were analyzed with a FACSArray flow cytometer (BD Biosciences, San Jose, Calif., USA) using the BD Cytometric Bead Array (CBA) Flex Set (BD Biosciences). IC50 values were calculated using the four parameter logistic equation.

[2] = test system: human PDE4 enzyme; assay: Phosphodiesterase 4 (PDE4) inhibition, semi-purified enzyme from human U937 cells; assay type: biochemical; details: 1 μM cAMP, 20 minutes at 25° C.; read-out: PDE4 IC50
[3] = Pharmacokinetics and oral bioavailability after IV and PO dosing; assay type: in vivo, female CD-1 mice; details: plasma; for AUC / bioavailability: female, CD-1, mouse; for AUC: 10 mg/kg oral suspension dose; for clearance: mouse, 5 mg/kg, female CD-1 mice, intravenous; for bioavailability: po
Protocol: The objective of this study was to evaluate the pharmacokinetics and oral bioavailability of PDE4 inhibitors following intravenous (IV) administration and oral (PO) doses in female CD-1 mice.
After dosing, blood samples were collected through 24 h, twice from each animal at specific times (3 mice/time point), into microcentrifuge tubes containing K2EDTA (anticoagulant), stored on wet ice and processed for plasma. The plasma samples were analyzed for concentrations of parent compound by LC/MS/MS using an internal standard/peak area method. Pharmacokinetic analysis of the mean plasma concentration-time profiles following IV and PO administration was performed.
[…] Dosing solutions for intravenous administration were prepared in 55% PEG300/25% PG/20% water. Oral dosing used a suspension prepared in 1% CMC in water with 0.1% Tween 80.
After dosing, blood samples were collected through 24 h, twice from each animal via retro-orbital bleed (˜0.1 mL, 1st time point) or cardiac puncture (˜0.6 mL, 2nd time point) at specific times (3 mice/time point), into microcentrifuge tubes containing K2EDTA (anticoagulant) and stored on wet ice prior to processing.
Plasma was prepared by centrifugation of blood samples for 6 min at approximately 2000×g or 6000 rpm at 4° C. All processed plasma samples (˜50 μL and 300 μL) were transferred to analysis tubes, placed on dry ice immediately and later stored at −80° C. until analysis for concentrations of experimental compound by LC/MS/MS.
Mouse IV clearance, Mouse Oral AUC and Oral Bioavailability are provided below. 6-(1-Hydroxy-1,3-dihydrobenzo[c][1,2]oxaborol-5-yloxy)-2-(2-isopropoxyethoxy)nicotinonitrile (D140) and 6-(1-hydroxy-1,3-dihydrobenzo[c][1,2]oxaborol-5-yloxy)-2-(4-oxopentyloxy)nicotinonitrile (D141) are disclosed in U.S. patent application Ser. No. 12/399,015, filed Mar. 5, 2009.

Row | Compound | IC50 [1] [nM] | IC50 [2] [nM] | AUC [3] [ng·h/mL] | clearance [3] [mL/min/kg] | bioavailability [3] [%]
1 | COCC(COc1nc(Oc2ccc3c(c2)COB3O)c(Cl)cc1C#N)OC (stereo not drawn) [Compound D232, 5-Chloro-2-(2,3-dimethoxypropoxy)-6-(1-hydroxy-1,3-dihydrobenzo[c][1,2]oxaborol-5-yloxy)nicotinonitrile] | 98 | 23 |  |  | 
2 | N#Cc1cc(Cl)c(Oc2ccc3c(c2)COB3O)nc1OCCOC(F)(F)F [Compound D235] | 2.2 |  | 5840 | 20.2 | 
3 | CC(=O)CCCOc1nc(Oc2ccc3c(c2)COB3O)c(C2CC2)cc1C#N [Compound D236, 5-cyclopropyl-6-(1-hydroxy-1,3-dihydrobenzo[c][1,2]oxaborol-5-yloxy)-2-(4-oxopentyloxy)nicotinonitrile] | 0.34 |  | 5620 | 34.2 | 100
4 | CC(C)OCCOc1nc(Oc2ccc3c(c2)COB3O)c(C2CC2)cc1C#N [Compound D237, 5-cyclopropyl-6-(1-hydroxy-1,3-dihydrobenzo[c][1,2]oxaborol-5-yloxy)-2-(2-isopropoxyethoxy)nicotinonitrile] | 1.5 |  | 6920 | 26.8 | 100
5 | CC(C)OCCOc1nc(Oc2ccc3c(c2)COB3O)c(C(F)(F)F)cc1C#N [Compound D238, 6-(1-Hydroxy-1,3-dihydrobenzo[e][1,2]oxaborol-5-yloxy)-2-(2-isopropoxyethoxy)-5-(trifluoromethyl)nicotinonitrile] | 1.1 |  | 11200 | 9.85 | 65
6 | N#Cc1cc(Cl)c(Oc2ccc3c(c2)COB3O)nc1OCCOC1CC1 [Compound D239, 5-Chloro-2-(2-cyclopropoxyethoxy)-6-(1-hydroxy-1,3-dihydrobenzo[c][1,2]oxaborol-5-yloxy)nicotinonitrile] | 0.65 | 1.3 |  |  | 
7 | CC(C)OCCOc1nc(Oc2ccc3c(c2)COB3O)cc(C(F)(F)F)c1C#N [Compound D241, 6-(1-hydroxy-1,3-dihydrobenzo[c][1,2]oxaborol-5-yloxy)-2-(2-isopropoxyethoxy)-4-(trifluoromethyl)nicotinonitrile] | 2.9 | 1.1 | 14900 | 14.2 | 100
8 | CC(=O)CCCOc1nc(Oc2ccc3c(c2)COB3O)cc(C(F)(F)F)c1C#N [Compound D242, 6-(1-Hydroxy-1,3-dihydrobenzo[c][1,2]oxaborol-5-yloxy)-2-(4-oxopentyloxy)-4-(trifluoromethyl)nicotinonitrile] | 0.21 | 2.2 | 590 | 567 | 15
9 | CC(C)OCCOc1nc(Oc2ccc3c(c2)COB3O)c(C#N)cc1C#N [Compound D243, 2-(1-Hydroxy-1,3-dihydrobenzo[c][1,2]oxaborol-5-yloxy)-6-(2-isopropoxyethoxy)pyridine-3,5-dicarbonitrile] | 1.1 | 6.5 | 3900 | 50 | 96
10 | CC(=O)CCCOc1nc(Oc2ccc3c(c2)COB3O)c(C#N)cc1C#N [Compound D244, 2-(1-Hydroxy-1,3-dihydrobenzo[c][1,2]oxaborol-5-yloxy)-6-(4-oxopentyloxy)pyridine-3,5-dicarbonitrile] | 0.21 |  | 13600 | 23.3 | 100
11 | Cc1cc(Oc2nc(OCCOC(C)C)c(C#N)cc2Cl)cc2c1B(O)OC2 [Compound D245, 5-Chloro-6-(1-hydroxy-7-methyl-1,3-dihydrobenzo[c][1,2]oxaborol-5-yloxy)-2-(2-isopropoxyethoxy)nicotinonitrile] | 26 | 2 |  |  | 
12 | CC(=O)CCCOc1nc(Oc2cc(C)c3c(c2)COB3O)c(Cl)cc1C#N [Compound D246, 5-Chloro-6-(1-hydroxy-7-methyl-1,3-dihydrobenzo[c][1,2]oxaborol-5-yloxy)-2-(4-oxopentyloxy)nicotinonitrile] | 11 | 1.3 |  |  | 
13 | CC(C)OCCOc1nc(Oc2cc(F)c3c(c2)COB3O)c(Cl)cc1C#N [Compound D247, 5-Chloro-6-(7-fluoro-1-hydroxy-1,3-dihydrobenzo[c][1,2]oxaborol-5-yloxy)-2-(2-isopropoxyethoxy)nicotinonitrile] | 2.9 | 19 | 21000 | 18.3 | 100
14 | CC(=O)CCCOc1nc(Oc2cc(F)c3c(c2)COB3O)c(Cl)cc1C#N [Compound D248, 5-Chloro-6-(7-fluoro-1-hydroxy-1,3-dihydrobenzo[c][1,2]oxaborol-5-yloxy)-2-(4-oxopentyloxy)nicotinonitrile] | 0.93 | 1.7 | 91000 | 1.83 | 79
15 | CC(C)OCCOc1nc(Oc2cc3c(cc2F)B(O)OC3)c(Cl)cc1C#N [Compound D249, 5-Chloro-6-(6-fluoro-1-hydroxy-1,3-dihydrobenzo[c][1,2]oxaborol-5-yloxy)-2-(2-isopropoxyethoxy)nicotinonitrile] | 2.3 |  | 3300 | 59.1 | 100
16 | CC(=O)CCCOc1nc(Oc2cc3c(cc2F)B(O)OC3)c(Cl)cc1C#N [Compound D250, 5-Chloro-6-(6-fluoro-1-hydroxy-1,3-dihydrobenzo[c][1,2]oxaborol-5-yloxy)-2-(4-oxopentyloxy)nicotinonitrile] | 0.41 |  | 17000 | 7.83 | 71
17 | [2H]C1([2H])OB(O)c2ccc(Oc3nc(OCCOC(C)C)c(C#N)cc3Cl)cc21 [Compound D251, 5-Chloro-6-(3,3-dideuterio-1-hydroxy-1,3-dihydrobenzo[c][1,2]oxaborol-5-yloxy)-2-(2-isopropoxyethoxy)nicotinonitrile] | 2.3 |  | 6300 | 44.5 | 
18 | CC(=O)CCCOc1nc(Oc2ccc3c(c2)COB3O)c(C#N)cc1Cl [Compound D253, 5-Chloro-2-(1-hydroxy-1,3-dihydrobenzo[c][1,2]oxaborol-5-yloxy)-6-(4-oxopentyloxy)nicotinonitrile] | 0.57 | 0.25 |  |  | 
19 | CC(C)OCCOc1nc(Oc2cc(F)c3c(c2)COB3O)cc(C(F)(F)F)c1C#N [Compound D254, 6-(7-fluoro-1-hydroxy-1,3-dihydrobenzo[c][1,2]oxaborol-5-yloxy)-2-(2-isopropoxyethoxy)-4-(trifluoromethyl)nicotinonitrile] | 3.5 |  | 110000 | 1.05 | 58
